According to patent publication US10670605B2, “Cysteine reactive probes and uses thereof” (The Scripps Research Institute, priority 2015, dated 2020):
Values belong to the molecule of their own block, whether it stands above or below them.

What was measured:
Assay in all cases: Competitive isoTOP-ABPP in situ (fragment-treated cells)
Assay type in all cases: cell-based
[1] = target: T1, cysteines in MDA-MB-231 and Ramos cells (Homo sapiens, UniProt P13667)
T1 sequence (P13667 21-645): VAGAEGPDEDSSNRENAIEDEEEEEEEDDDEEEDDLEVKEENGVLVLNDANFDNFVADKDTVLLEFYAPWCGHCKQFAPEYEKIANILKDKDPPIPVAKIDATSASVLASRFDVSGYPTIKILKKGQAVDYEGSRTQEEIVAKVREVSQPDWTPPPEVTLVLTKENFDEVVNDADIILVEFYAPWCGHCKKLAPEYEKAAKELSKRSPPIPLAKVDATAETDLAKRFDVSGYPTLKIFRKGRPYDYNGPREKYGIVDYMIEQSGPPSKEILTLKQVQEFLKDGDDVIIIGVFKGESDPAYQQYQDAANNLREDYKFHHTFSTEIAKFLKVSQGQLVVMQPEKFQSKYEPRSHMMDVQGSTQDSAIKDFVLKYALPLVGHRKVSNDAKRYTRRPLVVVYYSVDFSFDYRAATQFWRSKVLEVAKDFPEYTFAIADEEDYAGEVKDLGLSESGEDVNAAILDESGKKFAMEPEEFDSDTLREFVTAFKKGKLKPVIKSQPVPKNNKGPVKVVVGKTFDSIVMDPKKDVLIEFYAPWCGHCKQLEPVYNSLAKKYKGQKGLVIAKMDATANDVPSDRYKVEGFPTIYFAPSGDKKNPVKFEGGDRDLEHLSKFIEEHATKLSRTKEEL

[2] = target: T2, cysteines in MDA-MB-231 and Ramos cells (Homo sapiens, UniProt Q15084)
T2 sequence (Q15084 20-440): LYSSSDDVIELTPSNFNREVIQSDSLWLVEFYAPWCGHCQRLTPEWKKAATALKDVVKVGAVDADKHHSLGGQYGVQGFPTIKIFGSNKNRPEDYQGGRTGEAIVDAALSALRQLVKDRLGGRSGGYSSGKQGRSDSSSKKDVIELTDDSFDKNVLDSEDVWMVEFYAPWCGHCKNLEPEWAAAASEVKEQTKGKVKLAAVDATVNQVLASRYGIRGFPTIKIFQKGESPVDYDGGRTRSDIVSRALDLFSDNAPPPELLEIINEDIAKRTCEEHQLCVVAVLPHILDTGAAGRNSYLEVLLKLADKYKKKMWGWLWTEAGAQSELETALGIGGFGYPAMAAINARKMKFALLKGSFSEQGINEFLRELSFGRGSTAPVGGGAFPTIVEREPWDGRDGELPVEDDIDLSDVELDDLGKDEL

[3] = target: T3, cysteines in MDA-MB-231 and Ramos cells (Homo sapiens, UniProt Q9ULW0)
T3 sequence (Q9ULW0 1-747): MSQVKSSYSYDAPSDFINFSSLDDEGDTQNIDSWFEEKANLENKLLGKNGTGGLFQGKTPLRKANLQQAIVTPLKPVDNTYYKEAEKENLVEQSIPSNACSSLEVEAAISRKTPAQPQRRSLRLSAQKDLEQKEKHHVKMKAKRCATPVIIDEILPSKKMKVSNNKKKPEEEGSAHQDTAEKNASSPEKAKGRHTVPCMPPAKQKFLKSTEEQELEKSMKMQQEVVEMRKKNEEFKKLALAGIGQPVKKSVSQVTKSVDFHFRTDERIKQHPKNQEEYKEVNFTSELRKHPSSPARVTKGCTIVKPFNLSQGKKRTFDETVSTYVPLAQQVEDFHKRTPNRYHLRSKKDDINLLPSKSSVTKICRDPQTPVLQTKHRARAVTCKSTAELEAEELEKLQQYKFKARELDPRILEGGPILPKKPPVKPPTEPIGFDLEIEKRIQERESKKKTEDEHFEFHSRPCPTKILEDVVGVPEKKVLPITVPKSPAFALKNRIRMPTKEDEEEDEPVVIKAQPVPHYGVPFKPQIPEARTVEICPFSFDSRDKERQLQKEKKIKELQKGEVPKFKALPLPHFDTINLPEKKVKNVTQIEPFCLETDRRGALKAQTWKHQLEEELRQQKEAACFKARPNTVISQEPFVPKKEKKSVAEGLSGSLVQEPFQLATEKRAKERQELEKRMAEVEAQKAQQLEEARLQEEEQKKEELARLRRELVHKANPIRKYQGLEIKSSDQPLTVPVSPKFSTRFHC

[4] = target: T4, cysteines in MDA-MB-231 and Ramos cells (Homo sapiens, UniProt P23919)
T4 sequence (P23919 1-212): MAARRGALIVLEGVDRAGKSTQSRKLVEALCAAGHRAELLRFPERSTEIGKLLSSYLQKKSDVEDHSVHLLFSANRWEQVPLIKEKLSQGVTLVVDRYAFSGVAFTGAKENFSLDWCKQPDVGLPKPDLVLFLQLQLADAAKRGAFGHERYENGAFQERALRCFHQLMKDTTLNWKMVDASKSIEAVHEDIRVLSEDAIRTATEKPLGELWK

[5] = target: cysteines in MDA-MB-231 and Ramos cells (Homo sapiens, UniProt P38606)
[6] = target: T5, cysteines in MDA-MB-231 and Ramos cells (Homo sapiens, UniProt Q99439)
T5 sequence (Q99439 1-309): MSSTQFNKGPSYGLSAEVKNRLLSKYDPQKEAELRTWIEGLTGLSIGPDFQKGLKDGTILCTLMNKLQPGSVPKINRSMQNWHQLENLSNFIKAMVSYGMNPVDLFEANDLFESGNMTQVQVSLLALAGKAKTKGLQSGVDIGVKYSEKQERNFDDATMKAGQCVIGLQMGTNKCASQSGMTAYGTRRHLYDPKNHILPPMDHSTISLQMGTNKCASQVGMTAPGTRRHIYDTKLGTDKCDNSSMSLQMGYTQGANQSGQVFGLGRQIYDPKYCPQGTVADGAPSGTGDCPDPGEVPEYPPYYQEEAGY

[7] = target: T6, cysteines in MDA-MB-231 and Ramos cells (Homo sapiens, UniProt Q99497)
T6 sequence (Q99497 1-189): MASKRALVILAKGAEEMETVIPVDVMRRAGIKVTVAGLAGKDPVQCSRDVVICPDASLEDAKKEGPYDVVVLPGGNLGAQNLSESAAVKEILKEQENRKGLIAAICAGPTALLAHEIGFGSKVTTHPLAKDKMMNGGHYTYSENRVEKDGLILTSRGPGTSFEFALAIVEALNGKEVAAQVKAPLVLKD

cysteines in MDA-MB-231 and Ramos cells (Homo sapiens, UniProt P38606), sequence (P38606 whole entry): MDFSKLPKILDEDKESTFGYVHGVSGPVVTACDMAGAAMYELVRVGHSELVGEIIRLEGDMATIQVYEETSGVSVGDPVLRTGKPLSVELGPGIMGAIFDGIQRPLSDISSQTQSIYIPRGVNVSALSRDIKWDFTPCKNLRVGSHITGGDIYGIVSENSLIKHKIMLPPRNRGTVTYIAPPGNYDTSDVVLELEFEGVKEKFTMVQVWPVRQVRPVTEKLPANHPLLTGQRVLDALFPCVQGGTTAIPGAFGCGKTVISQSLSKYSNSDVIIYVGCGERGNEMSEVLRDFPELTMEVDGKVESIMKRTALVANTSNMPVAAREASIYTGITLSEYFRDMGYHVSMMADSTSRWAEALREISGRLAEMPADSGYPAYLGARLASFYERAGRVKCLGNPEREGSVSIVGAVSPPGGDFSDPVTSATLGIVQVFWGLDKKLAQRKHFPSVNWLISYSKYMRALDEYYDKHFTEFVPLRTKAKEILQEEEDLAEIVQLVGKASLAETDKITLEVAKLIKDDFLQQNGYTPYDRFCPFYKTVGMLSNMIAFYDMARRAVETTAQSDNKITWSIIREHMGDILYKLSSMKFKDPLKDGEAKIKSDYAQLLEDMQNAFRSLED

- isoTOP-ABPP reactivity P13667_C206 PDIA4 ([1]; 200 μM, insitu, 231): 2.6
- isoTOP-ABPP reactivity P13667_C555 PDIA4 ([1]; 200 μM, insitu, 231): 3.2
- isoTOP-ABPP reactivity Q15084_C55 PDIA6 ([2]; 200 μM, insitu, 231): 3.0
- isoTOP-ABPP reactivity Q9ULW0_C536 TPX2 ([3]; 200 μM, insitu, 231): 20.0
SMILES: COc1ccc2c(c1)CCCN2C(=O)CCl [compound 2]

- isoTOP-ABPP reactivity P13667_C206 PDIA4 ([1]; 100 μM in situ 231): 6.8
- isoTOP-ABPP reactivity P13667_C555 PDIA4 ([1]; 100 μM in situ 231): 9.0
- isoTOP-ABPP reactivity P23919_C163 DTYMK ([4]; 100 μM in situ 231): 0.4
- isoTOP-ABPP reactivity P38606_C138 ATP6V1A ([5]; 100 μM in situ 231): 20.0
- isoTOP-ABPP reactivity Q15084_C55 PDIA6 ([2]; 100 μM in situ 231): 4.9
- isoTOP-ABPP reactivity Q15084_C190 PDIA6 ([2]; 100 μM in situ 231): 20.0
- isoTOP-ABPP reactivity Q99439_C164 CNN2 ([6]; 100 μM in situ 231): 1.5
- isoTOP-ABPP reactivity Q99497_C106 PARK7 ([7]; 100 μM in situ 231): 0.9
- isoTOP-ABPP reactivity Q9ULW0_C536 TPX2 ([3]; 100 μM in situ 231): 20.0
SMILES: COc1ccc(C2CC(c3cccs3)=NN2C(=O)CCl)cc1 (centres unmarked) [compound 4]

- isoTOP-ABPP reactivity P13667_C206 PDIA4 ([1]; 200 μM, insitu, 231): 15.2
- isoTOP-ABPP reactivity P13667_C555 PDIA4 ([1]; 200 μM, insitu, 231): 20.0
- isoTOP-ABPP reactivity P23919_C117 DTYMK ([4]; 200 μM, insitu, 231): 0.4
- isoTOP-ABPP reactivity P23919_C163 DTYMK ([4]; 200 μM, insitu, 231): 0.6
- isoTOP-ABPP reactivity P38606_C138 ATP6V1A ([5]; 200 μM, insitu, 231): 20.0
- isoTOP-ABPP reactivity Q15084_C55 PDIA6 ([2]; 200 μM, insitu, 231): 4.4
- isoTOP-ABPP reactivity Q15084_C190 PDIA6 ([2]; 200 μM, insitu, 231): 5.2
- isoTOP-ABPP reactivity Q99439_C164 CNN2 ([6]; 200 μM, insitu, 231): 1.1
- isoTOP-ABPP reactivity Q9ULW0_C536 TPX2 ([3]; 200 μM, insitu, 231): 20.0
SMILES: COc1cc2c(cc1OC)CN(C(=O)CCl)CC2 [compound 8]

- isoTOP-ABPP reactivity P13667_C206 PDIA4 ([1]; 200 μM, insitu, 231): 1.1
- isoTOP-ABPP reactivity P13667_C555 PDIA4 ([1]; 200 μM, insitu, 231): 1.4
- isoTOP-ABPP reactivity P23919_C117 DTYMK ([4]; 200 μM, insitu, 231): 7.3
- isoTOP-ABPP reactivity P38606_C138 ATP6V1A ([5]; 200 μM, insitu, 231): 20.0
- isoTOP-ABPP reactivity Q15084_C55 PDIA6 ([2]; 200 μM, insitu, 231): 2.1
- isoTOP-ABPP reactivity Q99439_C164 CNN2 ([6]; 200 μM, insitu, 231): 4.7
- isoTOP-ABPP reactivity Q9ULW0_C536 TPX2 ([3]; 200 μM, insitu, 231): 5.7
SMILES: O=C(CCl)N1CCC(Cc2ccccc2)CC1 [compound 9]

- isoTOP-ABPP ratio P13667_C206 ([1]; 200 μM, insitu, 231): 3.8
- isoTOP-ABPP ratio P13667_C555 ([1]; 200 μM, insitu, 231): 3.3
- isoTOP-ABPP ratio P13667_C555 ([1]; 200 μM, insitu, ramos): 1.4
- isoTOP-ABPP ratio, cysteine P23919_C117 ([4]; 200 μM, insitu, 231): 0.4
- isoTOP-ABPP ratio P38606_C138 ([5]; 200 μM, insitu, 231): 20.0
- isoTOP-ABPP ratio Q15084_C55 ([2]; 200 μM, insitu, 231): 3.1
- isoTOP-ABPP ratio, Q15084_C190 ([2]; 200 μM, insitu, 231): 3.7
- isoTOP-ABPP ratio Q99439_C164 ([6]; 200 μM, insitu, 231): 1.2
- isoTOP-ABPP ratio Q99439_C164 ([6]; 200 μM, insitu, ramos): 1.3
- isoTOP-ABPP ratio Q99497_C106 ([7]; 200 μM, insitu, 231): 1.7
- isoTOP-ABPP ratio Q9ULW0_C536 ([3]; 200 μM, insitu, 231): 17.6
SMILES: O=C(CCl)N1CCN(S(=O)(=O)c2ccccc2F)CC1 [compound 10]

- isoTOP-ABPP ratio P13667_C206 ([1]; 100 μM in situ 231): 4.1
- isoTOP-ABPP ratio, cysteine P23919_C163 ([4]; 100 μM in situ 231): 0.2
- isoTOP-ABPP ratio P38606_C138 ([5]; 100 μM in situ 231): 9.2
- isoTOP-ABPP ratio Q15084_C55 ([2]; 100 μM in situ 231): 4.3
- isoTOP-ABPP ratio Q99439_C164 ([6]; 100 μM in situ 231): 0.6
- isoTOP-ABPP ratio Q99497_C106 ([7]; 100 μM in situ 231): 1.3
- isoTOP-ABPP ratio Q9ULW0_C536 ([3]; 100 μM in situ 231): 1.4
SMILES: Cn1cc(S(=O)(=O)N2CCOCC2)cc1C(=O)NC(=O)CCl [compound 11]

- isoTOP-ABPP ratio P13667_C206 ([1]; 200 μM, insitu, 231): 16.6
- isoTOP-ABPP ratio P13667_C555 ([1]; 200 μM, insitu, 231): 20.0
- isoTOP-ABPP ratio, cysteine P23919_C117 ([4]; 200 μM, insitu, 231): 0.2
- isoTOP-ABPP ratio P38606_C138 ([5]; 200 μM, insitu, 231): 20.0
- isoTOP-ABPP ratio Q15084_C55 ([2]; 200 μM, insitu, 231): 15.4
- isoTOP-ABPP ratio, Q15084_C190 ([2]; 200 μM, insitu, 231): 20.0
- isoTOP-ABPP ratio Q99439_C164 ([6]; 200 μM, insitu, 231): 0.9
- isoTOP-ABPP ratio Q99497_C106 ([7]; 200 μM, insitu, 231): 3.0
- isoTOP-ABPP ratio Q9ULW0_C536 ([3]; 200 μM, insitu, 231): 20.0
SMILES: O=C(CCl)NC(=O)NC12CC3CC(CC(C3)C1)C2 [compound 12]
